Assay results reported in patent US20130129713A1, “METHOD OF ANTIGEN LOADING FOR IMMUNOTHERAPY” (IEO - ISTITUTO EUROPEO DI ONCOLOGIA S.R.L., priority 2010, published 2013).

How the values were obtained:
[1] = tested on: Connexin (Cx) 43 expression in B16 cells; assay: Cx43 expression in B16 cells after infection or PAMP/IFN-g treatment (immunofluorescence, Western blot); format: cell-based, murine
Method: Single bacterial colonies were grown overnight and restarted the next day to reach an A600 nm=0.6 corresponding to 0.6×10^9 CFU/mL. Murine and human melanoma cells were incubated with bacteria for 2 h, at a ratio of 1:50 (cell/bacteria), in the appropriate medium without antibiotics. Cells were washed with PBS and incubated in medium supplemented with 50 μg/mL gentamicin for 12 or 24 h in order to kill extracellular bacteria, with or without IFN-g(100 U/ml).
B16 cells and DC1 DCs were plated in 6-well plates (2×10^5 cells/well) and grown for 18 h. Cells were incubated with PAMPs in complete medium with or without IFN-g(100 U/ml) for 24 hours. The PAMPs used were LPS (1 μg/ml, Sigma), flagellin (0.1 μg/ml, Alexis) and LTA (10 μg/ml, Sigma).
24 hour after infection or treatment with PAMPs, melanoma cells were scraped in ELB buffer (250 mM NaCl, 0.5% Nonidet P-40, 50 mM HEPES [pH 7.0], 5 mM EDTA) containing 1 mM dithiothreitol, 0.5 mM phenylmethylsulfonyl fluoride, and protease inhibitors. Cell lysates were run on SDS page and transferred on Immobilon PVDF membranes. Membranes were probed with a polyclonal rabbit-anti-Cx43 antibody (Sigma) or with a monoclonal mouse-anti-Cx43 antibody (Zymed) or with mouse-anti-vinculin antibody (Sigma) overnight at 4° C. and incubated with anti-mouse horseradish peroxidase-conjugated IgG (Calbiochem) or with anti-rabbit horseradish peroxidase-conjugated IgG (BioRad) antibodies for 1 h. Visualization was carried out with ECL (GE Healthcare). Bands were quantified by densitometry using NIH Image-based software Scion Image (Scion Corporation).
B16 cells were plated onto coverslips (5×10^4 cells/coverslip) and grown for 18 h. Cells were infected with Salmonella. After 24 hours the cells were fixed in 4% (w/v) paraformaldehyde in PBS for 15 min. Blocking and permeabilization were carried out incubating the cells in PBS, 3% (w/v) bovine serum albumin (BSA) and 0.1% (w/v) Triton X-100 for 20 min. The cells were then stained with polyclonal rabbit-anti-Cx43 primary antibody (Sigma, 1:2000) and with an anti-rabbit-Cy3-conjugated secondary antibody (Jackson ImmunoResearch laboratories, 1:400). Cell nuclei were stained with 4′,6-diamidino-2-phenylindole. Confocal microscopy was carried out using a Leica TCS-SP2 (Leica Microsystem).

B16-OVA cells / DCs = assay: In vitro cross-presentation assay (K^bOVA on CD11c+ DCs); format: cell-based, murine
Method: B16 and B16-OVA cells alone or together with DCs were treated or not with Salmonella and 24 hours later were stained with 5 μM of Carboxyfluorescein Succinimidyl ester (CF SE) for 20 minutes at 37° C. in the dark and then washed with cold PBS. Where stated, B16 and B16-OVA cells were treated with 10 μM Lactacystin (Sigma) overnight. […] After 24 hours cross-presentation of OVA peptide by DCs was analyzed by cytofluorimetry on CD11c^+ cells using an antibody that recognizes the OVA SIINFEKL peptide in association with MHC I (anti K^bOVA, 25-D1.16).

[2] = tested on: GJs dependent intercellular communication, Mel-04 to human MoDC; assay: FACS dye transfer assay, human cells: Mel-04 to MoDC; format: cell-based; conditions: co-culture in presence of heptanol (3.5 mM)
Excerpt: FIG. 18. Salmonella infection upregulates GJs dependent intercellular communication in a melanoma-MoDC coculture model system. Human monocyte-derived DCs (MoDCs) were labeled with DDAO and then extensively washed.

[3] = tested on: GJs-dependent intercellular communication, SK-Mel-24 to Mo-DC; format: cell-based, human
[4] = tested on: GJs dependent intercellular communication between SK-Mel-24 cells; assay: Dye transfer between SK-Mel-24 melanoma cells; format: cell-based, human; conditions: in the presence of heptanol
Method: FIG. 20. Salmonella infection up-regulates GJs dependent intercellular communication in SK-Mel-24 melanoma cell line. In this experiment the dye transfer was performed from melanoma to melanoma cells (SK-Mel-24). The increase in dye transfer from Salmonella infected to non-infected SK-Mel-24 cells is clear as compared to that from non-infected to non-infected cells. The right panel represents the same experiment performed in the presence of Heptanol, an inhibitor of GJ dependent intercellular communication. Data are expressed as percentage of SK-Mel-24 calcein positive cells.

[5] = tested on: SK-Mel24 and other target cell lines; assay: CTL generation and cytotoxicity (DELFIA cytotoxicity kit); format: cell-based, human; conditions: Mo-DC/SL-infected SK-Mel24 coculture in presence of Heptanol (3,5 mM)
Method: FIG. 24. SL-infected SK-Mel-24 loaded MoDC generate CTLs able to recognize epitopes shared among melanoma cells. CTL generated as described in materials and methods were tested for their antigen-specific cytotoxicity using DELFIA cytotoxicity kit. Target cells were: SK-Mel24, melanoma cell line, HLA negative cell line, HT29 (colon carcinoma).
Mo-DCs obtained from the same donor were loaded with SL-infected SK-Mel24 (SL-SK), and cultured, with purified CD8^+ T cells. Proliferating cells were expanded for 7-10 days in complete medium supplemented with 20 U/ml of rhIL-2. Cytotoxic properties of generated CTLs were tested against selected targets.
Purified CD8 T cells by magnetic cell sorting were cultured with MoDCs previously cocultured with infected or non-infected Sk-Mel24 in the presence or absence of 3,5 mM heptanol. After 24-48h cultures were supplemented with 20 U/ml of rhIL-2 and after 7-10 days CTLs were either subjected to a second round of stimulation or assayed for their cytotoxic activity. Melanoma specific cytotoxicity was measured by using DELFIA cytotoxicity Kit (Perkin Elmer) and lysosomal-associated membrane protein-1 (CD107a) mobilization was performed by using BD FastImmune CD107a reagent (BD Bioscience), according to manufacturer's instructions.

[6] = tested on: gap junctions between B16 cells and DCs; assay: FACS dye transfer assay, murine cells (calcein-AM from B16 to DDAO-labeled DCs); conditions: co-culture in presence of heptanol (3.5 mM)
Method: B16 cells were infected or not with Salmonella, pulsed with the GJ-diffusible dye Calcein-AM and incubated with DDAO-labeled DCs, in the presence or absence of heptanol. One h later the % of cells double positive for DDAO and Calcein-AM, representing the DCs that received the dye from tumor cells, was evaluated by FACS (Black bars).
FACS assay murine cells. DCs were labeled with 10 μM of the dye 7-hydroxy-9H(I,3-dichloro-9,9-dimethylacridin-2-one) (DDAO, Molecular Probes) for 15 minutes at R.T. in the dark and then extensively washed with PBS. B16 cells were infected or not with Salmonella and after 24 hours were labeled with 0.5 μM calcein-acetoxymethylester (calcein-AM; Molecular Probes) in serum-free medium for 30 minutes at 37° C. and then co-cultured with DCs at a ratio of 2:1. Calcein transfer between tumor cells and DCs was evaluated by cytofluorimetry. The co-culture of B16/DCs was carried out in the presence or absence of (3.5 mM) Heptanol (Sigma).

[7] = B16 cells incubated with purified bacterial components, Western blot 24 h

flagellin
Cx43 expression [1, 7]: same upregulation of Cx43

lypopolysaccharide [LPS]
Cx43 expression [1, 7]: same upregulation of Cx43

CC(=O)N[C@@H](CSC(=O)[C@]1([C@@H](O)C(C)C)NC(=O)[C@H](C)[C@@H]1O)C(=O)O [lactacystin]
DC surface exposure of the K^b-OVA complex (B16-OVA cells / DCs; B16-OVA pretreated with 10 μM Lactacystin overnight): prevented the DC surface exposure of the K^b-OVA complex

CCCCCCCO [heptanol]
presentation of OVA peptide (K^bOVA) by DCs (B16-OVA cells / DCs; infected B16-OVA + mature DCs 24 h, Heptanol (3.5 mM)): completely abolished the presentation of the peptide | calcein dye transfer from Mel-04 to MoDC [2]: capable of inhibiting the transfer | calcein transfer from SK-Mel-24 to Mo-DC [3]: most of the calcein transfer was inhibited | dye transfer from infected to non infected SK-Mel-24 cells [4]: inhibited | cytotoxicity of generated CTLs against the specific target [5]: unable to lyse the specific target | transfer of calcein from B16 cells to DCs [6]: completely abolished the transfer of calcein

lipoteichoic acid [LTA]
Cx43 expression [1, 7]: same upregulation of Cx43

B1: IFN-g: inflammatory cytokine gamma-IFN (protein, UniProt P01579 24-161, looked up)
Interferon gamma: QDPYVKEAENLKKYFNAGHSDVADNGTLFLGILKNWKEESDRKIMQSQIVSFYFKLFKNFKDDQSIQKSVETIKEDMNVKFFNSNKKKRDDFEKLTNYSVTDLNVQRKAIHELIQVMAELSPAAKTGKRKRSQMLFRG
Cx43 expression ([1]; B16 cells, IFN-g alone (100 U/ml)): upregulated Cx43 | Cx43 expression, combination effect ([1]; B16 cells, IFN-g together with Salmonella or bacterial components): acted in synergy with the bacterial components
